In patent US8354419B2, “Benzimidazole analogues for the treatment or prevention of flavivirus infections” (Vertex Pharmaceuticals Incorporated, priority 2009, dated 2013):

Test system: HCV (Ib) RNA replication
Assay: Cell-based luciferase reporter HCV (1b) RNA replication assay (replicon cell lines Huh-7 5.2 and ET)
Set-up: species or system Hepatitis C virus
Details: Hepatitis C virus, Huh-7, 96 h, HCV 1b genotype replicon, luciferase readout, 4 days incubation; read-out: EC50_1b
Method in brief: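 Compounds were tested at eleven concentrations in duplicate over 4 days at 37 °C, 5% CO2. The cells were luciferase-reporter HCV 1b replicon lines 5.2 (NS5A adaptive mutation) or ET (NS4B mutation). Luminescence of lysates was measured, and IC50s were derived by nonlinear curve fitting.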

| SMILES | EC50 |
| --- | --- |
| COC(=O)N[C@@H](C)C(=O)N1CCC[C@H]1c1nc2cc(C#Cc3ccc4[nH]c([C@@H]5CCCN5C(=O)[C@H](NC(=O)OC)c5ccccc5)nc4c3)ccc2[nH]1 [Compound 55] | ≤ 5 nM |
| COC(=O)N[C@@H](C)C(=O)N1CCC[C@H]1c1nc2cc(C#Cc3ccc4[nH]c([C@@H]5CCCN5C(=O)[C@H]5CCCO5)nc4c3)ccc2[nH]1 [Compound 56] | ≤ 5 nM |
| COC(=O)N[C@@H](C)C(=O)N1CCC[C@H]1c1nc2cc(C#Cc3ccc4[nH]c([C@@H]5CCCN5)nc4c3)ccc2[nH]1 [Compound 57] | 5 to 5000 nM |
| COC(=O)N[C@H](C(=O)N1CCCC[C@H]1c1nc2cc(C#Cc3ccc4[nH]c([C@@H]5CCCCN5C(=O)[C@@H](NC(=O)OC)C(C)C)nc4c3)ccc2[nH]1)C(C)C [Compound 58] | ≤ 5 nM |
| COC(=O)N[C@@H](C)C(=O)N1CCC[C@H]1c1nc2cc(C#Cc3ccc4c(c3)N=C([C@@H]3CCCN3C(=O)C(c3ccccc3)N(C)C)C4)ccc2[nH]1 (some centres unmarked) [Compound 59] | ≤ 5 nM |
| COC(=O)N[C@H](C(=O)N1CCCC[C@H]1c1nc2cc(C#Cc3ccc4[nH]c([C@@H]5CCCN5C(=O)[C@@H](NC(=O)OC)C(C)C)nc4c3)ccc2[nH]1)C(C)C [Compound 60] | ≤ 5 nM |
| O=C(N1CCC[C@H]1c1nc2cc(C#Cc3ccc4[nH]c([C@@H]5CCCN5C(=O)C5(c6ccccc6)CC5)nc4c3)ccc2[nH]1)C1(c2ccccc2)CC1 [Compound 61] | ≤ 5 nM |
| COC(=O)N[C@H](C(=O)N1CCC[C@H]1c1nc2cc(C#Cc3ccc4[nH]c([C@@H]5CCCN5C(=O)[C@H](NC(=O)OC)C(C)C)nc4c3)ccc2[nH]1)C(C)C [Compound 62] | ≤ 5 nM |
| COC(=O)N(C)[C@H](C(=O)N1CCC[C@H]1c1nc2cc(C#Cc3ccc4nc([C@@H]5CCCN5C(=O)[C@H](C(C)C)N(C)C(=O)OC)[nH]c4c3)ccc2[nH]1)C(C)C [Compound 63] | ≤ 5 nM |
| COC(=O)N[C@H](C(=O)N1CCC[C@H]1c1nc2ccc(CCc3ccc4nc([C@@H]5CCCN5C(=O)[C@@H](NC(=O)OC)C(C)C)[nH]c4c3)cc2[nH]1)C(C)C [Compound 64] | ≤ 5 nM |
| CC(C)[C@H](NS(C)(=O)=O)C(=O)N1CCC[C@H]1c1nc2cc(C#Cc3ccc4nc([C@@H]5CCCN5C(=O)[C@@H](NS(C)(=O)=O)C(C)C)[nH]c4c3)ccc2[nH]1 [Compound 65] | 5 to 5000 nM |
| CN1CCC[C@H]1C(=O)N1CCCC1c1nc2ccc(C#Cc3ccc4[nH]c([C@@H]5CCCN5C(=O)[C@@H]5CCCN5C)nc4c3)cc2[nH]1 (some centres unmarked) [Compound 66] | 5 to 5000 nM |
| O=C1CCC(C(=O)N2CCC[C@H]2c2nc3cc(C#Cc4ccc5nc([C@@H]6CCCN6C(=O)[C@@H]6CCC(=O)N6)[nH]c5c4)ccc3[nH]2)N1 (some centres unmarked) [Compound 67] | 5 to 5000 nM |
| COC(=O)NC(C(=O)N1CCC[C@H]1c1nc2ccc(CCCCc3ccc4[nH]c([C@@H]5CCCN5C(=O)[C@@H](NC(=O)OC)C(C)C)nc4c3)cc2[nH]1)C(C)C (some centres unmarked) [Compound 68] | ≤ 5 nM |
| CC(C)(C)OC(=O)N1CCC[C@H]1c1nc2cc(C#CC#Cc3ccc4[nH]c([C@@H]5CCCN5C(=O)OC(C)(C)C)nc4c3)ccc2[nH]1 [Compound 69] | 5 to 5000 nM |
| CC(C)[C@H](NC(=O)NC1CCCC1)C(=O)N1CCCC1c1nc2cc(C#Cc3ccc4[nH]c([C@H]5CCCN5C(=O)[C@@H](NC(=O)NC5CCCC5)C(C)C)nc4c3)ccc2[nH]1 (some centres unmarked) [Compound 70] | 5 to 5000 nM |
| COC[C@H](NC(=O)OC)C(=O)N1CCC[C@H]1c1nc2cc(C#Cc3ccc4nc([C@@H]5CCCN5C(=O)[C@H](COC)NC(=O)OC)[nH]c4c3)ccc2[nH]1 [Compound 71] | ≤ 5 nM |
| COC(=O)N(C)[C@H](C(=O)N1CCC[C@H]1c1nc2cc(CCc3ccc4nc([C@@H]5CCCN5C(=O)[C@H](C(C)C)N(C)C(=O)OC)[nH]c4c3)ccc2[nH]1)C(C)C [Compound 72] | ≤ 5 nM |
| COC(=O)N[C@@H](C(=O)N1CC[C@H]1c1nc2cc(C#Cc3ccc4[nH]c([C@@H]5CCN5C(=O)[C@H](NC(=O)OC)C(C)C)nc4c3)ccc2[nH]1)C(C)C [Compound 73] | ≤ 5 nM |
| COC(=O)N[C@H](C(=O)N1CCC[C@H]1c1nc2cc(C#CC#Cc3ccc4nc([C@@H]5CCCN5C(=O)[C@H](NC(=O)OC)C(C)C)[nH]c4c3)ccc2[nH]1)C(C)C [Compound 74] | ≤ 5 nM |
| O=C(N1CCOCC1)N1CCC[C@H]1c1nc2cc(C#Cc3ccc4[nH]c([C@@H]5CCCN5C(=O)N5CCOCC5)nc4c3)ccc2[nH]1 [Compound 75] | ≤ 5 nM |
| COC(=O)N[C@H](C(=O)N1CCC[C@H]1c1nc2cc(C#Cc3ccc4nc([C@@H]5CCCN5C(=O)[C@@H](O)C(C)C)[nH]c4c3)ccc2[nH]1)C(C)C [Compound 76] | ≤ 5 nM |
| COC(=O)N[C@H](C(=O)N1CCC[C@H]1c1nc2cc(C#Cc3ccc4nc([C@@H]5CCCN5C(=O)[C@@H](NC(=O)OC(C)(C)C)C5CCCCC5)[nH]c4c3)ccc2[nH]1)C(C)C [Compound 77] | ≤ 5 nM |
| COC(=O)N[C@H](C(=O)N1CCC[C@H]1c1nc2cc(C#Cc3ccc4nc([C@@H]5CCCN5C(=O)[C@H](O)C(C)C)[nH]c4c3)ccc2[nH]1)C(C)C [Compound 78] | ≤ 5 nM |

| SMILES | EC50 |
| --- | --- |
| C[C@@H](C(=O)N1CCC[C@H]1c1nc2cc(C#Cc3ccc4[nH]c([C@@H]5CCCN5C(=O)[C@H](C)N5CCCC5=O)nc4c3)ccc2[nH]1)N1CCCC1=O [Compound 79] | ≤ 5 nM |
| O=C1CCCCCN1CC(=O)N1CCC[C@H]1c1nc2cc(C#Cc3ccc4[nH]c([C@@H]5CCCN5C(=O)CN5CCCCCC5=O)nc4c3)ccc2[nH]1 [Compound 80] | > 5000 nM |
| CC(C)[C@@H](C(=O)N1CCC[C@H]1c1nc2cc(C#Cc3ccc4[nH]c([C@@H]5CCCN5C(=O)[C@H](C(C)C)N5CCCC5=O)nc4c3)ccc2[nH]1)N1CCCC1=O [Compound 81] | ≤ 5 nM |
| CC(C)[C@@H](NC(=O)O[C@H]1CCOC1)C(=O)N1CCC[C@H]1c1nc2cc(C#Cc3ccc4[nH]c([C@@H]5CCCN5C(=O)[C@H](NC(=O)O[C@H]5CCOC5)C(C)C)nc4c3)ccc2[nH]1 [Compound 82] | 5 to 5000 nM |
| C[C@H](C(=O)N1CCC[C@H]1c1nc2cc(C#Cc3ccc4[nH]c([C@@H]5CCCN5C(=O)[C@@H](C)N5CCCC5=O)nc4c3)ccc2[nH]1)N1CCCC1=O [Compound 83] | ≤ 5 nM |
| CC(C)C[C@@H](C(=O)N1CCC[C@H]1c1nc2cc(C#Cc3ccc4[nH]c([C@@H]5CCCN5C(=O)[C@H](CC(C)C)N5CCCC5=O)nc4c3)ccc2[nH]1)N1CCCC1=O [Compound 84] | ≤ 5 nM |
| CC(C)C(NC(=O)C1CCCCC1)C(=O)N1CCC[C@H]1c1nc2cc(C#Cc3ccc4[nH]c([C@@H]5CCCN5C(=O)C(NC(=O)C5CCCCC5)C(C)C)nc4c3)ccc2[nH]1 (some centres unmarked) [Compound 85] | 5 to 5000 nM |
| O=C1CC[C@H](C(=O)N2CCC[C@H]2c2nc3cc(C#Cc4ccc5[nH]c([C@@H]6CCCN6C(=O)[C@H]6CCC(=O)N6)nc5c4)ccc3[nH]2)N1 [Compound 86] | > 5000 nM |
| CC(C)[C@H](NC(=O)[C@@H]1CCC(=O)N1)C(=O)N1CCC[C@H]1c1nc2cc(C#Cc3ccc4[nH]c([C@@H]5CCCN5C(=O)[C@@H](NC(=O)[C@@H]5CCC(=O)N5)C(C)C)nc4c3)ccc2[nH]1 [Compound 87] | > 5000 nM |
| CC(C)(NC(=O)OCc1ccccc1)C(=O)N1CCC[C@H]1c1nc2cc(C#Cc3ccc4[nH]c([C@@H]5CCCN5C(=O)C(C)(C)NC(=O)OCc5ccccc5)nc4c3)ccc2[nH]1 [Compound 88] | 5 to 5000 nM |
| CC(C)[C@H](NC(=O)Cc1c[nH]c2ccccc12)C(=O)N1CCC[C@H]1c1nc2cc(C#Cc3ccc4[nH]c([C@@H]5CCCN5C(=O)[C@@H](NC(=O)Cc5c[nH]c6ccccc56)C(C)C)nc4c3)ccc2[nH]1 [Compound 89] | 5 to 5000 nM |
| COC(=O)N[C@H](C(=O)N1CC(F)(F)C[C@H]1c1nc2cc(C#Cc3ccc4nc([C@@H]5CC(F)(F)CN5C(=O)[C@@H](NC(=O)OC)C(C)C)[nH]c4c3)ccc2[nH]1)C(C)C [Compound 90] | ≤ 5 nM |
| CC(C)[C@H](NC(=O)N(C)C)C(=O)N1CCC[C@H]1c1nc2cc(C#Cc3ccc4nc([C@@H]5CCCN5C(=O)[C@@H](NC(=O)N(C)C)C(C)C)[nH]c4c3)ccc2[nH]1 [Compound 91] | ≤ 5 nM |
| CC(C)(C)OC(=O)N1CCCC[C@H]1c1nc2cc(C#Cc3ccc4[nH]c([C@@H]5CCCCN5C(=O)OC(C)(C)C)nc4c3)ccc2[nH]1 [Compound 92] | ≤ 5 nM |
| COC(=O)NCC(=O)N1CCC[C@H]1c1nc2cc(C#Cc3ccc4nc([C@@H]5CCCN5C(=O)CNC(=O)OC)[nH]c4c3)ccc2[nH]1 [Compound 93] | 5 to 5000 nM |
| COC(=O)N[C@H](C(=O)N1CCC[C@H]1c1nc2cc(C#Cc3ccc4[nH]c([C@@H]5CCCN5C(=O)[C@@H](NC(=O)OC)C5CC5)nc4c3)ccc2[nH]1)C1CC1 [Compound 94] | 5 to 5000 nM |
| COC(=O)N[C@H](C(=O)N1CCC[C@H]1c1nc2cc(C#Cc3ccc4[nH]c([C@@H]5CCCN5C(=O)[C@@H](NC(=O)OC)C5CCCCC5)nc4c3)ccc2[nH]1)C1CCCCC1 [Compound 95] | ≤ 5 nM |
| CC(=O)N[C@H](C(=O)N1CCC[C@H]1c1nc2cc(C#Cc3ccc4[nH]c([C@@H]5CCCN5C(=O)[C@@H](NC(C)=O)C(C)C)nc4c3)ccc2[nH]1)C(C)C [Compound 96] | 5 to 5000 nM |
| CC(=O)N[C@H](C(=O)N1CCC[C@H]1c1nc2cc(C#Cc3ccc4[nH]c([C@@H]5CCCN5C(=O)[C@H](NC(C)=O)C(C)C)nc4c3)ccc2[nH]1)C(C)C [Compound 97] | 5 to 5000 nM |
| CC(=O)N[C@@H](C(=O)N1CCC[C@@H]1c1nc2cc(C#Cc3ccc4[nH]c([C@H]5CCCN5C(=O)[C@H](NC(C)=O)C(C)C)nc4c3)ccc2[nH]1)C(C)C [Compound 98] | 5 to 5000 nM |
| O=C([C@H]1C[C@@H](O)CN1)N1CCC[C@H]1c1nc2cc(C#Cc3ccc4[nH]c([C@@H]5CCCN5C(=O)[C@H]5C[C@@H](O)CN5)nc4c3)ccc2[nH]1 [Compound 99] | 5 to 5000 nM |
| O=C([C@H]1C[C@H](O)CN1)N1CCC[C@H]1c1nc2cc(C#Cc3ccc4[nH]c([C@@H]5CCCN5C(=O)[C@H]5C[C@H](O)CN5)nc4c3)ccc2[nH]1 [Compound 100] | > 5000 nM |
| CC(C)[C@H](NC(=O)O[C@H]1CCOC1)C(=O)N1CCC[C@H]1c1nc2cc(-c3ccc(-c4ccc5[nH]c([C@@H]6CCCN6C(=O)[C@@H](NC(=O)O[C@H]6CCOC6)C(C)C)nc5c4)s3)ccc2[nH]1 [Compound 101] | 5 to 5000 nM |
